Data: the supplement of paper PMC8967900

Columns and labels:
Experiment in all cases: selective drug sensitivity score (sDSS, relative to normal bone marrow) (sDSS (score)); higher = more potent and effective on the cell line relative to normal bone marrow cells
Conditions in all cases: 72 h
COG-LL-394h = tested on: COG-LL-394h
P30-OHKUBO = tested on: P30-OHKUBO
KASUMI-9 = tested on: KASUMI-9
380 = tested on: 380
ALL-SIL = tested on: ALL-SIL
RPMI-8402 = tested on: RPMI-8402
COG-LL-402h = tested on: COG-LL-402h
COG-LL-317 = tested on: COG-LL-317
TMD5 = tested on: TMD5
RCH-ACV = tested on: RCH-ACV
ALL-PO = tested on: ALL-PO
MHH-CALL-2 = tested on: MHH-CALL-2
MHH-CALL-3 = tested on: MHH-CALL-3
COG-LL-355h = tested on: COG-LL-355h
PF-382 = tested on: PF-382
MOLT-4 = tested on: MOLT-4
PEER = tested on: PEER
KARPAS-45 = tested on: KARPAS-45
P12-ICHIKAWA = tested on: P12-ICHIKAWA
JURKAT = tested on: JURKAT
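Also: ALL cell lines in 384-well plates, five doses spanning 10,000-fold, each plate scaled between vehicle and 100 µmol/L benzalkonium chloride controls, sDSS an adapted area-under-curve metric.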

SMILES | selective drug sensitivity score (COG-LL-394h) | selective drug sensitivity score (P30-OHKUBO) | selective drug sensitivity score (KASUMI-9) | selective drug sensitivity score 380 | selective drug sensitivity score (ALL-SIL) | selective drug sensitivity score (RPMI-8402) | selective drug sensitivity score (COG-LL-402h) | selective drug sensitivity score (COG-LL-317) | selective drug sensitivity score (TMD5) | selective drug sensitivity score (RCH-ACV) | selective drug sensitivity score (ALL-PO) | selective drug sensitivity score (MHH-CALL-2) | selective drug sensitivity score (MHH-CALL-3) | selective drug sensitivity score (COG-LL-355h) | selective drug sensitivity score (PF-382) | selective drug sensitivity score (MOLT-4) | selective drug sensitivity score (PEER) | selective drug sensitivity score (KARPAS-45) | selective drug sensitivity score (P12-ICHIKAWA) | selective drug sensitivity score (JURKAT)
CC(O)c1cc(C(=O)N[C@@H](C)Cn2ccc(-c3ccc(C#N)c(Cl)c3)n2)n[nH]1 (stereo not given in full) [ODM-201] (top concentration 2500 nM) | -0.28 | 0.22 | -0.18 | -0.08 | 4.72 | 0.12 | 4.62 | 1.22 | -0.28 | 1.12 | 0.52 | 0.02 | 0.82 | 2.52 | 0.52 | -0.18 | 1.02 | 2.32 | 0.22 | 0.72
C[C@H]1C[C@@H](n2c(Nc3ccc(OC(F)(F)F)cc3)nc3cc(CCC(=O)O)ccc32)CC(C)(C)C1 (top concentration 10000 nM) | -0.14 | -0.14 | 0.66 | -0.14 | 1.06 | 1.46 | -0.14 | 2.56 | -0.14 | -0.14 | 2.86 | 0.96 | -0.14 | 2.16 | 0.66 | 3.06 | 2.16 | 2.76 | 1.26 | 4.26
O=C1CCC(N2C(=O)c3ccccc3C2=O)C(=O)N1 (stereo not given) [Thalidomide] (top concentration 10000 nM) | -0.14 | -0.14 | -0.14 | -0.14 | -0.14 | -0.14 | -0.14 | -0.14 | -0.14 | -0.14 | -0.14 | -0.14 | -0.14 | 0.16 | -0.14 | -0.14 | -0.14 | -0.14 | -0.14 | -0.14
O=C(O)CC[C@H]1CC[C@@](c2cc(F)ccc2F)(S(=O)(=O)c2ccc(Cl)cc2)CC1 [MK-0752] (top concentration 1000 nM) | 0 | 2.5 | 0 | 4.6 | 0 | 3.2 | 0 | 0 | 0 | 0.3 | 0 | 3.8 | 0 | 0 | 0 | 0 | 0 | 0 | 0 | 0
CC(O)(CS(=O)(=O)c1ccc(F)cc1)C(=O)Nc1ccc(C#N)c(C(F)(F)F)c1 (stereo not given) [Bicalutamide] (top concentration 10000 nM) | -0.18 | -1.68 | 0.52 | 1.72 | -1.68 | 1.02 | -1.68 | 0.52 | -0.88 | -1.68 | 3.92 | -1.68 | -1.68 | 2.62 | -1.38 | 2.32 | -0.18 | -0.88 | -0.88 | 0.42
O=C(Nc1cnn2ccc(N3CCC[C@@H]3c3cc(F)ccc3F)nc12)N1CC[C@H](O)C1 [Larotrectinib] (top concentration 1000 nM) | -0.62 | -0.52 | 0.98 | -0.62 | -0.62 | -0.62 | 2.78 | -0.62 | -0.62 | 1.48 | -0.62 | -0.52 | -0.62 | 0.48 | -0.62 | -0.62 | -0.62 | -0.62 | -0.62 | -0.62
CC(=O)O[C@@]12CO[C@@H]1C[C@H](O)[C@@]1(C)C(=O)[C@H](O)C3=C(C)[C@@H](OC(=O)[C@H](O)[C@@H](NC(=O)OC(C)(C)C)c4ccccc4)C[C@@](O)([C@@H](OC(=O)c4ccccc4)[C@H]21)C3(C)C [Docetaxel] (top concentration 1000 nM) | 8.5 | 20.4 | 21 | 22.4 | 20.6 | 13.2 | 15 | 20.6 | 8.5 | 22.6 | 15.5 | 18.6 | 7.3 | 5.1 | 10.5 | 14.8 | 22.3 | 17.1 | 19.1 | 17.1
CONC(=O)c1ccccc1Nc1cc(Nc2cc(C)nn2C(C)C)ncc1Cl (top concentration 1000 nM) | -0.94 | -0.94 | -0.94 | 1.16 | 0.86 | -0.94 | -0.94 | -0.94 | -0.94 | -0.94 | -0.14 | -0.94 | -0.94 | 1.66 | -0.94 | -0.94 | -0.94 | -0.94 | -0.94 | -0.94
CC[C@@H]1C(=O)OC[C@@H]1Cc1cncn1C [Pilocarpine] (top concentration 40000 nM) | -1.56 | -1.56 | -1.56 | -1.56 | -0.76 | -1.56 | -1.56 | -1.56 | -1.56 | -1.56 | -1.56 | 4.44 | -1.56 | -1.56 | -1.56 | -1.26 | -1.56 | -1.56 | -1.56 | -1.56
